“Also recorded” adds a separate entry of the source. Like-named read-outs stand apart in the source and are kept apart here.
Assays:
Format in all cases: biochemical
kinases [1] = target: kinases (Homo sapiens, UniProt O14920); conditions: IKBKB (IKKbeta) FRET-Z-Lyte SP; Test Conc(μM):ATP Conc(μM) 1:5
kinases [2] = target: kinases (Homo sapiens, UniProt O43293); conditions: DAPK3 (ZIPK) FRET-Z-Lyte SP; Test Conc(μM):ATP Conc(μM) 1:5
kinases [3] = target: kinases (Homo sapiens, UniProt O60285); conditions: NUAK1 (ARK5) FRET-Adapta SP; Test Conc(μM):ATP Conc(μM) 1:25
kinases [4] = target: kinases (Homo sapiens, UniProt O60331); conditions: Test Conc(μM):ATP Conc(μM) 1:10
kinases [5] = target: kinases (Homo sapiens, UniProt O94806); conditions: PRKCN (PKD3) FRET-Z-Lyte SP; Test Conc(μM):ATP Conc(μM) 1:25
kinases [6] = target: kinases (Homo sapiens, UniProt P08631); conditions: HCK FRET-Z-Lyte SP; Test Conc(μM):ATP Conc(μM) 1:25
kinases [7] = target: kinases (Homo sapiens, UniProt P09619); conditions: PDGFRB *Mn* FRET-Z-Lyte SP; Test Conc(μM):ATP Conc(μM) 1:100
kinases [8] = target: kinases (Homo sapiens, UniProt P17948); conditions: FLT1 (VEGFR1) *Mn* Z-Lyte SP; Test Conc(μM):ATP Conc(μM) 1:150
kinases [9] = target: kinases (Homo sapiens, UniProt P19525); conditions: EIF2AK2 (PKR) FRET-Lantha SP; Test Conc(μM) 1
kinases [10] = target: kinases (Homo sapiens, UniProt P22455); conditions: FGFR4 *Mn* FRET-Z-Lyte SP; Test Conc(μM):ATP Conc(μM) 1:150
kinases [11] = target: kinases (Homo sapiens, UniProt P29322); conditions: EPHA8 FRET-Z-Lyte SP; Test Conc(μM):ATP Conc(μM) 1:100
kinases [12] = target: kinases (Homo sapiens, UniProt P33981); conditions: TTK FRET-Lantha SP; Test Conc(μM) 1
kinases [13] = target: kinases (Homo sapiens, UniProt P42356); conditions: PI4KA FRET-Adapta SP; Test Conc(μM):ATP Conc(μM) 1:10
kinases [14] = target: kinases (Homo sapiens, UniProt P43405); conditions: SYK FRET-Z-Lyte SP; Test Conc(μM):ATP Conc(μM) 1:25
kinases [15] = target: kinases (Homo sapiens, UniProt P45985); conditions: MAP2K4 (MEK4) FRET-Lantha SP; Test Conc(μM) 1
kinases [16] = target: kinases (Homo sapiens, UniProt P49759); conditions: CLK1 FRET-Z-Lyte SP; Test Conc(μM):ATP Conc(μM) 1:25
kinases [17] = target: kinases (Homo sapiens, UniProt P49840); conditions: GSK3A FRET-Z-Lyte SP; Test Conc(μM):ATP Conc(μM) 1:10
kinases [18] = target: kinases (Homo sapiens, UniProt P51617); conditions: IRAK1 FRET-Adapta SP; Test Conc(μM):ATP Conc(μM) 1:25
kinases [19] = target: kinases (Homo sapiens, UniProt Q00536); conditions: CDK16(PCTK1)/cyclinY Lantha SP; Test Conc(μM) 1
kinases [20] = target: kinases (Homo sapiens, UniProt Q12851); conditions: MAP4K2 (GCK) FRET-Z-Lyte SP; Test Conc(μM):ATP Conc(μM) 1:100
kinases [21] = target: kinases (Homo sapiens, UniProt Q13153); conditions: PAK1 FRET-Z-Lyte SP; Test Conc(μM):ATP Conc(μM) 1:50
kinases [22] = target: kinases (Homo sapiens, UniProt Q13557); conditions: CAMK2D FRET-Z-Lyte SP; Test Conc(μM):ATP Conc(μM) 1:5
kinases [23] = target: kinases (Homo sapiens, UniProt Q15835); conditions: GRK1 FRET-Lantha SP; Test Conc(μM) 1
kinases [24] = target: kinases (Homo sapiens, UniProt Q86UE8); conditions: TLK2 FRET-Lantha SP; Test Conc(μM) 1
kinases [25] = target: kinases (Homo sapiens, UniProt Q8WXR4); conditions: MYO3B FRET-Lantha SP; Test Conc(μM) 1
kinases [26] = target: kinases (Homo sapiens, UniProt Q99755); conditions: PIP5K1A FRET-Adapta SP; Test Conc(μM):ATP Conc(μM) 1:10
kinases [27] = target: kinases (Homo sapiens, UniProt Q9Y2U5); conditions: MAP3K2 (MEKK2) FRET-Lantha SP; Test Conc(μM) 1
kinases [28] = target: kinases (Homo sapiens, UniProt Q9Y6E0); conditions: STK24 (MST3) FRET-Z-Lyte SP; ATP Conc(μM):Test Conc(μM) 1:50
kinases [29] = target: kinases
[30] = LYN B FRET-Z-Lyte SP, Test Conc(μM):ATP Conc(μM) 1:25
[31] = PRKCB2 (PKC Beta II) Z-Lyte SP, Test Conc(μM):ATP Conc(μM) 1:200

kinases (Homo sapiens, UniProt O43293), sequence (O43293 whole entry): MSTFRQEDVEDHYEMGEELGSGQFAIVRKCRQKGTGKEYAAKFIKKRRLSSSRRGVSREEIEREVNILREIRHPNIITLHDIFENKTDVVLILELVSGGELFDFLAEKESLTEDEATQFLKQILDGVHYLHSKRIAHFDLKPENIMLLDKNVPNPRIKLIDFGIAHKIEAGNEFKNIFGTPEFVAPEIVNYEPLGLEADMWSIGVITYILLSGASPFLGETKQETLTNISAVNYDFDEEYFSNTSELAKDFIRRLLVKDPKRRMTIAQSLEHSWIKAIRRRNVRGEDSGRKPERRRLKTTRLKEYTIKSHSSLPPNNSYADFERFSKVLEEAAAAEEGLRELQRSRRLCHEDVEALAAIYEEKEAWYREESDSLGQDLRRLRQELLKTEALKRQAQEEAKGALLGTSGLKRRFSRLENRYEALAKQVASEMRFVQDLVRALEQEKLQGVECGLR
kinases (Homo sapiens, UniProt Q86UE8), sequence (Q86UE8 whole entry): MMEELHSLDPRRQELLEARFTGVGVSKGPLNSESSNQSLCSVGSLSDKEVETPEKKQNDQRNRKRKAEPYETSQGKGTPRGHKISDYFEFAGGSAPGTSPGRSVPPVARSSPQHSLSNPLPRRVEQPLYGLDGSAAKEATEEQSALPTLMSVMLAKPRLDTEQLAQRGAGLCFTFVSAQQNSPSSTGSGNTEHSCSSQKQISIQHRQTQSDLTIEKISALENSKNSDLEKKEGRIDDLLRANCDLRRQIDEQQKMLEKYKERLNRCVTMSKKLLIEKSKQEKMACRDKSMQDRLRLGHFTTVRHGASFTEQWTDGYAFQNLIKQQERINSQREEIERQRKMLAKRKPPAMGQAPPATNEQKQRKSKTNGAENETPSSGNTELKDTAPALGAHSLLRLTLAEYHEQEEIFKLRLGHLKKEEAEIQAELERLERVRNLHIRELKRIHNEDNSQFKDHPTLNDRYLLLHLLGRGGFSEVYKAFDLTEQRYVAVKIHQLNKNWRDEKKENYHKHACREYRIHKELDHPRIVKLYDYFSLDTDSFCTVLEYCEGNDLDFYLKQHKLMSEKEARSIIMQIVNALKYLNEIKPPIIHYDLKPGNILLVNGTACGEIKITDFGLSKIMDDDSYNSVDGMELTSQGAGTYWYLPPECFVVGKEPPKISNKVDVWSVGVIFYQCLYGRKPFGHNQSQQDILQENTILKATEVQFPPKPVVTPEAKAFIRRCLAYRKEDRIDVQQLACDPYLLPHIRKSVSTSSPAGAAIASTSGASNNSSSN
kinases (Homo sapiens, UniProt P45985), sequence (P45985 whole entry): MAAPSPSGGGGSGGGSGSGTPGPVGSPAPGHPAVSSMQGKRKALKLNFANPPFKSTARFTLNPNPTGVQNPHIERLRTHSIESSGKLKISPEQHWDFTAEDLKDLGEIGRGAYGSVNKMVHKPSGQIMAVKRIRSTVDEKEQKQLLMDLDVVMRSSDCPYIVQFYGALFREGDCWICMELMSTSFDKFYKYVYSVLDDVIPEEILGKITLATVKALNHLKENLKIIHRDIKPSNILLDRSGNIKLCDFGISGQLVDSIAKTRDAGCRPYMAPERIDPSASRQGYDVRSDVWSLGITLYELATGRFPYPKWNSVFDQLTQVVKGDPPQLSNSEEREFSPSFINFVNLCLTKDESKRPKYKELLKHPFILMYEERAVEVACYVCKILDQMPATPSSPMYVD
kinases (Homo sapiens, UniProt Q13557), sequence (Q13557 whole entry): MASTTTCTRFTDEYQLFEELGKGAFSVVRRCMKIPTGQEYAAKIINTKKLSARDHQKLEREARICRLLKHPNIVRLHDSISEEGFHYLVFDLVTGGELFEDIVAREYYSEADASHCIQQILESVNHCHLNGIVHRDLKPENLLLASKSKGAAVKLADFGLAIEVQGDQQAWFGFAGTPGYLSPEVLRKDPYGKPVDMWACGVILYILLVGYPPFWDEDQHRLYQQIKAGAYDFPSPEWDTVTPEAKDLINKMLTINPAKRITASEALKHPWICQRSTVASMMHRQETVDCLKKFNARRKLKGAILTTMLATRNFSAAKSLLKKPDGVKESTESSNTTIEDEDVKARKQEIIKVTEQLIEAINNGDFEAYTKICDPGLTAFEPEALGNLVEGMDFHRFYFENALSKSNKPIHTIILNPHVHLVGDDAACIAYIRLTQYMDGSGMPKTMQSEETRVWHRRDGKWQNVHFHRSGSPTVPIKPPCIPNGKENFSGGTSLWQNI
kinases (Homo sapiens, UniProt Q00536), sequence (Q00536 whole entry): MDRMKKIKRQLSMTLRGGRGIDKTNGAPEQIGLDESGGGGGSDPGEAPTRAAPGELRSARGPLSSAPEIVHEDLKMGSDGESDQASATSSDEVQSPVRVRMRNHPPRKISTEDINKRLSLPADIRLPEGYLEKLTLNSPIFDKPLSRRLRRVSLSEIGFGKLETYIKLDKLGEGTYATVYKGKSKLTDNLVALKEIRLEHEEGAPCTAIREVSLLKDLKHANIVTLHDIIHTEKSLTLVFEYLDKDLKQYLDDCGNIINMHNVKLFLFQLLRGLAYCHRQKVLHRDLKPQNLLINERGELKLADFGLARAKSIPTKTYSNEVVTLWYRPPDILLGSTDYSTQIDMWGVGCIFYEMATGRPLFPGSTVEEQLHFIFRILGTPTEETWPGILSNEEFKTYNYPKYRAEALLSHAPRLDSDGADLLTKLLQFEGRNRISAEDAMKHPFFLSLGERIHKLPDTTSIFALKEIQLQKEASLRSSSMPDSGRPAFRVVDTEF
kinases (Homo sapiens, UniProt P51617), sequence (P51617 whole entry): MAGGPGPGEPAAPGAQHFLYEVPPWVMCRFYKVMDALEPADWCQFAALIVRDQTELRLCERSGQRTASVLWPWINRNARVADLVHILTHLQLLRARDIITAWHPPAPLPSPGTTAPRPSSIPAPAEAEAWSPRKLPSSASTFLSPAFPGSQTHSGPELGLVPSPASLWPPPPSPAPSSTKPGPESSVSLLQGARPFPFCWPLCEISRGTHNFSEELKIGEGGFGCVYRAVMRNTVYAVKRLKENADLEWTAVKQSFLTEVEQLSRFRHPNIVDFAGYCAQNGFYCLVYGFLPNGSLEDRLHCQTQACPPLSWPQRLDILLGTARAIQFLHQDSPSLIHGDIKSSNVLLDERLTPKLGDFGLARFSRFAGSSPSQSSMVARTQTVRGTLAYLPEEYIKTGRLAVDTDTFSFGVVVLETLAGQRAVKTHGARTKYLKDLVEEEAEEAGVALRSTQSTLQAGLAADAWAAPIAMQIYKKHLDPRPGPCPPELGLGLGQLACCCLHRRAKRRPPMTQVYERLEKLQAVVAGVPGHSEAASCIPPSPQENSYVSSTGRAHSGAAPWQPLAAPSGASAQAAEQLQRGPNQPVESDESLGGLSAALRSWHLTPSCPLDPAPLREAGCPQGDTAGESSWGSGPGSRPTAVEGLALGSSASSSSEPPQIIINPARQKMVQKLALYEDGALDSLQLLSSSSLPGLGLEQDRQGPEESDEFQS
kinases (Homo sapiens, UniProt P22455), sequence (P22455 22-802): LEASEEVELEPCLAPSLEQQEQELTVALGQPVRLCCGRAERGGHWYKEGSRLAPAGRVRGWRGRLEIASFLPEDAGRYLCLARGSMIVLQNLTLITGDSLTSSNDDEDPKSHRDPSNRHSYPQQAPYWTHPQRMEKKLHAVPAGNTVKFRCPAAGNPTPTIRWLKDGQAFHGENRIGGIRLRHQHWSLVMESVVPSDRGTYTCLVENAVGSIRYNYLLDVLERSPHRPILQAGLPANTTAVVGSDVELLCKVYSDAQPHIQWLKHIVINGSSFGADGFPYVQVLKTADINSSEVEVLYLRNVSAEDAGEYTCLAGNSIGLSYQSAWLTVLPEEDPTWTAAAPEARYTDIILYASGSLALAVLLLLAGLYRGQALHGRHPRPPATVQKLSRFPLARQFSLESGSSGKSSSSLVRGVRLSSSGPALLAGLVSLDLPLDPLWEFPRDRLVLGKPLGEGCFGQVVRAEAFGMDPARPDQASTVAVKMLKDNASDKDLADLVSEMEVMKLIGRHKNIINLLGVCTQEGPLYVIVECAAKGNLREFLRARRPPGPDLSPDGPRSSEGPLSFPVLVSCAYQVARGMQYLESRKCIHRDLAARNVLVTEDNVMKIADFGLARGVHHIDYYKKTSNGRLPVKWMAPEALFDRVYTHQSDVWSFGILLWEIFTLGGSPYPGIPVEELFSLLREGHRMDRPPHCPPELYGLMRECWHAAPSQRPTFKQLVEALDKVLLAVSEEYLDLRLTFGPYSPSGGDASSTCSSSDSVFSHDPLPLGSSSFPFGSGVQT
kinases (Homo sapiens, UniProt P33981), sequence (P33981 whole entry): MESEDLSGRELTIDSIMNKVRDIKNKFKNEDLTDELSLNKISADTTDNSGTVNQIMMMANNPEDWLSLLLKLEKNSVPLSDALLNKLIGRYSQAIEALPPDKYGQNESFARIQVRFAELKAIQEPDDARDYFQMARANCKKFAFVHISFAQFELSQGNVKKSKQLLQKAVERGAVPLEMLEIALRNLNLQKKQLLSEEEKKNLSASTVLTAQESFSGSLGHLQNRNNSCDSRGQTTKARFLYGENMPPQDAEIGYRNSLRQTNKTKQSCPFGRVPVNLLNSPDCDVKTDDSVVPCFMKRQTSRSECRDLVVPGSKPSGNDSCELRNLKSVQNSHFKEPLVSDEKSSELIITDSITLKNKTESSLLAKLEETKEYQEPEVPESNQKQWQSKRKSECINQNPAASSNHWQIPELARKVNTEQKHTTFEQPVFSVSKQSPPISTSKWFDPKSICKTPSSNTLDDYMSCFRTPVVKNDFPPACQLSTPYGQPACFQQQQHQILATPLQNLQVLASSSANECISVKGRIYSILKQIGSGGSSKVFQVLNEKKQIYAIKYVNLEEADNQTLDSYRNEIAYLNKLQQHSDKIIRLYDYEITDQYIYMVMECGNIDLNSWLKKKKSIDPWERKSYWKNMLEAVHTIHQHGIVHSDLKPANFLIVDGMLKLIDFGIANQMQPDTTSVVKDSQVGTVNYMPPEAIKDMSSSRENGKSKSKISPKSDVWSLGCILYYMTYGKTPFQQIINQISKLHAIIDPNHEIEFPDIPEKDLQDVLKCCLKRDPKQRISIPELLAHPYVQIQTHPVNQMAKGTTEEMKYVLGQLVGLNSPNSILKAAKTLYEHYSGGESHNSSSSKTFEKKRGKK

| Structure (SMILES) | Mean Inhib (%) (kinases [1]) | Mean Inhib (%) (kinases [2]) | Mean Inhib (%) (kinases [3]) | Mean Inhib (%) (kinases [5]) | Mean Inhib (%) (kinases [6]) | Mean Inhib (%) (kinases [7]) | Mean Inhib (%) (kinases [8]) | Mean Inhib (%) (kinases [9]) | Mean Inhib (%) (kinases [10]) | Mean Inhib (%) (kinases [11]) | Mean Inhib (%) (kinases [12]) | Mean Inhib (%) (kinases [13]) | Mean Inhib (%) (kinases [14]) | Mean Inhib (%) (kinases [15]) | Mean Inhib (%) (kinases [16]) | Mean Inhib (%) (kinases [17]) | Mean Inhib (%) (kinases [18]) | Mean Inhib (%) (kinases [19]) | Mean Inhib (%) (kinases [20]) | Mean Inhib (%) (kinases [21]) | also measured |
| --- | --- | --- | --- | --- | --- | --- | --- | --- | --- | --- | --- | --- | --- | --- | --- | --- | --- | --- | --- | --- | --- |
| Cc1ccc(NC(=O)c2ccnc(N3CCOCC3)c2)cc1Nc1ccnc(N2CC(C)OC(C)C2)n1 (stereo not shown) [compound 3] | 0.6 | 3.3 | −5.6 | 9.0 | 6.4 | 15.5 | 11.5 | 2.8 | 14.8 | 8.6 | 6.5 | 4.3 | −3.9 | −9.5 | 5.3 | 9.4 | 11.2 | 3.4 | 13.1 | −1.9 | Mean Inhib (%) (kinases [4]; PIP5K1C FRET-Adapta SP): −4.5%; Mean Inhib (%) (kinases [22]): 8.1%; Mean Inhib (%) (kinases [23]): −3.1%; Mean Inhib (%) (kinases [24]): −2.9%; Mean Inhib (%) (kinases [25]): 3.9%; Mean Inhib (%) (kinases [26]): −2.9%; Mean Inhib (%) (kinases [27]): 3.5%; Mean Inhib (%) (kinases [28]): −7.6%; kinase specificity (kinase inhibition profile) (kinases [29]): strong specificity in targeting p38α; also recorded: very specific for p38α/β; Mean Inhib (%) (kinases [29]; [30]): 16.3%; Mean Inhib (%) (kinases [29]; [31]): −11.1% |
| Cc1cc(Oc2ccnc(Nc3ccc(S(N)(=O)=O)cc3)c2)c(-c2ccccn2)nc1C [compound 65] | −2.5 | −11.8 | −3.5 | 12.4 | 30.9 | 3.9 | 2.7 | 3.6 | −0.9 | 64.7 | −2.0 | −6.0 | 2.5 | 14.1 | 5.8 | 3.2 | 5.1 | 0.2 | 18.4 | 14.1 | PIP5K1C FRET-Adapta SP Mean Mean Inhib (%) (kinases [4]; PIP5K1C): 3.2%; Mean Inhib (%) (kinases [22]): 0.3%; Mean Inhib (%) (kinases [23]): 3.7%; Mean Inhib (%) (kinases [24]): −4.8%; Mean Inhib (%) (kinases [25]): 4.1%; Mean Inhib (%) (kinases [26]): 2.4%; Mean Inhib (%) (kinases [27]): 5.7%; Mean Inhib (%) (kinases [28]): 4.9%; Mean Inhib (%) (kinases [29]; [30]): 42.0%; Mean Inhib (%) (kinases [29]; [31]): −1.0% |
